Assay results taken from patent US11980632B2 (priority 2020, dated 2024).

System: corona-pseudovirus
Format: cell-based, SARS-CoV-2

Row | Molecule | infection with the corona-pseudovirus (degree of infection depending on drug concentration)
1 | heparin | inhibited in a concentration-dependent manner
2 | CCN(CCO)CCCC(C)Nc1ccnc2cc(Cl)ccc12 (stereo not drawn) [hydroxychloroquinine] | inhibited in a concentration-dependent manner
3 | CN(C)C(=O)COC(=O)Cc1ccc(OC(=O)c2ccc(NC(=N)N)cc2)cc1 [Camostat] | inhibited in a concentration-dependent manner
